{
  "source": "paper PMC2376372",
  "about": "“3-Bromophenyl 6-acetoxymethyl-2-oxo-2H-1-benzopyran-3-carboxylate inhibits cancer cell invasion in vitro and tumour growth in vivo” (British Journal of Cancer, 2003)",
  "key": {"[1]": {"test_system": "HT1080 fibrosarcoma cells", "test": "Chemoinvasion assay, type IV collagen-coated Transwell inserts (Boyden chamber)", "type": "cell-based, human", "conditions": "type IV collagen-coated filters; for inhibition of HT1080 cell invasion (chemoinvasion) / inhibition at 1 µM: 1 μM; for inhibition of HT1080 cell invasion (chemoinvasion): 48 h; for inhibition at 1 µM / inhibition at 10 µM: Homo sapiens, HT-1080, 48 h, read-out: inhibition of HT1080 cell invasion (chemoinvasion)", "experimental": "Plates (24-well) (Falcon, Becton-Dickinson, USA) and 6.5 mm polycarbonate filters (8 μm pore size) of Transwell cell culture chamber inserts (Costar, Netherlands) were coated with 100 μl of type IV collagen purified from human placenta diluted at 200 μg ml^−1 in phosphate-buffered saline (PBS). Coats were left to air-dry overnight in a laminar flow hood under UV light. Uniformity of the coating was assessed by Coomassie blue staining. Before use, coated plates and inserts were washed twice with water and incubated for at least 1 h in serum-free DMEM at 37°C ([Maquoi et al, 1999]).\n(§1) HT1080 cells exponentially growing in T-75 flasks (Nunc, Costar, Netherlands) were collected by trypsin–ethylenediaminetetraacetic acid treatment, washed with serum-containing medium and allowed to recover from trypsinisation for at least 30 min at 37°C. Cells were then washed twice in serum-free DMEM and diluted in the same medium supplemented with 0.1% bovine serum albumin (BSA, fraction V, Sigma, USA) to a cell density of 6 × 10^5 cells ml^−1.\n(§2) The influence of coumarin derivatives (0.1, 1 and 10 μM) on HT1080 cell invasion and migration was assayed using Transwell cell culture inserts (Costar) and compared to the reference compound GI 129471 (1 μM), an MMP inhibitor ([Wheeler et al, 1998]).\n(§3) For chemoinvasion assays, type IV collagen-coated membranes (see above) were used, whereas uncoated membranes were employed for chemotaxis assays. Lower wells of chambers were filled with DMEM supplemented with 20% FCS and 1% BSA (fraction V, ICN) as chemoattractant, in the presence or absence of coumarin derivative (final concentration 0.1, 1 and 10 μM) or GI 129471 (final concentration 1 μM). Cells (6 × 10^4) suspended in DMEM supplemented with 0.1% BSA (fraction V, ICN) were seeded in the upper wells. Chambers were subsequently incubated for 48 and 4 h for chemoinvasion and chemotaxis assays, respectively, in a humid atmosphere at 37°C (in order to maintain a chemotactic gradient, media from both lower and upper wells were renewed after 24 h). After incubation, filters were removed from the chambers, fixed in 4% paraformaldehyde for 15 min (4°C), permeabilised for 10 min in methanol (−20°C) and stained with Giemsa (4%) for 15 min. The upper surface of the filters was scrapped with a cotton swab and cells having reached the lower surface of the filters were visually counted using a light microscope (Vanox AH3, Olympus, Hamburg, Germany) at 20-fold magnification. Each assay was performed in triplicate. Results were expressed as percentages (±s.d.) of the migration of control cells."}, "[2]": {"test_system": "HT1080 fibrosarcoma cells", "test": "Chemotaxis assay, uncoated Transwell inserts", "type": "cell-based, human", "conditions": "1 μM, 4 h, uncoated filters", "experimental": "as §1, §2, §3"}, "α-CT": {"molecular_target": "α-CT", "conditions": "cited from earlier work; for ki/KI or kobs/[I], α-CT: pH 7.5, 25°C"}, "HLE": {"molecular_target": "T1, HLE (Homo sapiens, UniProt P08246)", "T1 construct": "purchased Elastase Products Co", "T1 sequence (P08246 30-267)": "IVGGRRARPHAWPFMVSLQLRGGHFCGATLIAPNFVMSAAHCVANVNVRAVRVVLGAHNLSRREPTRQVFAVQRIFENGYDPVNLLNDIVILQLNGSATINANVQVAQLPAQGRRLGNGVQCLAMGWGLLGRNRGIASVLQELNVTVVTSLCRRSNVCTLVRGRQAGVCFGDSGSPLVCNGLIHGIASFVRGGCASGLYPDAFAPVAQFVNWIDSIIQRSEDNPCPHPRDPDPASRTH", "conditions": "cited from earlier work; for ki/KI or kobs/[I], HLE: pH 8.0, 25°C"}, "LMW-uPA": {"molecular_target": "T2, LMW-uPA (Homo sapiens, UniProt P00749)", "T2 construct": "Bovine α-CT and LMW-uPA (MW=33 000 Da) were purchased from Sigma; purchased Sigma", "test": "Inactivation of LMW-uPA (preincubation method)", "type": "biochemical", "experimental": "(§4) Bovine α-CT and LMW-uPA (MW=33 000 Da) were purchased from Sigma, HMW-uPA (MW=54 000 Da) from Choay, trypsin (TRY) and THR from Boehringer-Indelheim (Germany), and MMP-2 and MMP-9 from Calbiochem. Human leucocyte elastase and PM were from Elastase Products Co. and Biogenic, respectively. Except for THR, HMW-uPA, MMP-2 and MMP-9, enzyme concentrations were determined by active-site titrations using the appropriate titrant ([Bender et al, 1966]; [Chase and Shaw, 1970]; [Powers and Gupton, 1977]). […]\n(§5) The kinetic parameters for the inhibition were determined either by the preincubation method for LMW-uPA and PM (small aliquots of the reaction mixture were withdrawn at intervals of time and the remaining activity determined), or by the progress curve method (HLE) when the inhibition was too fast to be measured accurately using the preincubation method. […]\n(§6) At low inhibitor concentrations, the ratio ki/KI was obtained as kobs/[I]0. […] In the progress curve method, the substrate competes with the inhibitor and the kinetic parameters are determined as previously described ([Doucet et al, 1999]). […]"}, "Plasmin": {"molecular_target": "T3, Plasmin (Homo sapiens, UniProt P00747)", "T3 construct": "No; X′; α-CT; HLE; LMW-uPA; Plasmin; purchased Biogenic", "T3 sequence (P00747 581-810 limits assumed, species assumed)": "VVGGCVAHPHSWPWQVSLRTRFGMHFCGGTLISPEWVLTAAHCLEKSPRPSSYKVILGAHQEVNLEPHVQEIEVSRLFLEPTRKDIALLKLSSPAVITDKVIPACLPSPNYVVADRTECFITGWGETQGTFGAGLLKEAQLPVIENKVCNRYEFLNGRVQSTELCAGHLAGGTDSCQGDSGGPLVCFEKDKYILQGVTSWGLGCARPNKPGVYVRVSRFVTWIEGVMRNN", "T3 sequence (P00747 97-580 partner limits assumed, species assumed)": "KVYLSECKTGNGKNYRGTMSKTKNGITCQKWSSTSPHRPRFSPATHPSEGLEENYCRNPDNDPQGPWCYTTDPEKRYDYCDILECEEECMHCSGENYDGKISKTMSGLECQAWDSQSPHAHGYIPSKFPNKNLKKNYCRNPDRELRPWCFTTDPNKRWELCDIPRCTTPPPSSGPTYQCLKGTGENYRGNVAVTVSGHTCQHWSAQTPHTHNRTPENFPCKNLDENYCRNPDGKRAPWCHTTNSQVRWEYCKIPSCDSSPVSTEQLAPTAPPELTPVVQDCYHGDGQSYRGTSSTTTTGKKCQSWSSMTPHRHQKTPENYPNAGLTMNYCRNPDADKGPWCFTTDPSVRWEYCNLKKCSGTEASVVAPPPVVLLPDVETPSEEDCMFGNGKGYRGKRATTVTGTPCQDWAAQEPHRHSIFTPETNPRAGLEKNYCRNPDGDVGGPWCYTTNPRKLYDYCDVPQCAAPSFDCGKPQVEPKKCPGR", "test": "Inactivation of plasmin (preincubation method)", "type": "biochemical", "conditions": "pH 7.5, read-out: ki/KI or kobs/[I], Plasmin", "experimental": "as §4, §5, §6"}},
  "note": "Where two headings read alike, the source gives them in different places.",
  "data": [
    {"smiles": "CNC(=O)[C@H](Cc1ccccc1)NC(=O)[C@H](CC(C)C)[C@H](CSc1ccccc1)C(=O)NO", "note": "[GI 129471, reference compound]", "values": [
      {"measurement": "inhibition of HT1080 cell invasion (chemoinvasion)", "setting": "[1]", "result": 60, "unit": "%"},
      {"measurement": "chemotaxis inhibition", "setting": "[2]", "result": 30, "unit": "%"},
      {"measurement": "chemotaxis inhibition", "setting": "[2]; listed as reference compound", "result": "20–30%"}
    ]},
    {"smiles": "O=C(Oc1cccc(Cl)c1)c1cc2ccccc2oc1=O", "note": "[compound 1]", "values": [
      {"measurement": "inhibition at 1 µM", "setting": "[1]", "result": 50, "unit": "%"},
      {"measurement": "inhibition at 10 µM", "setting": "[1]", "result": 65, "unit": "%"},
      {"measurement": "ki/KI or kobs/[I], α-CT", "setting": "α-CT; ref Pochet et al (2000)", "result": "<500^a M^−1 s^−1"},
      {"measurement": "ki/KI or kobs/[I], HLE", "setting": "HLE; ref Pochet et al (2000)", "result": "610^a M^−1 s^−1"}
    ]},
    {"smiles": "Cc1ccc2oc(=O)c(C(=O)Oc3cccc(Cl)c3)cc2c1", "note": "[compound 2]", "values": [
      {"measurement": "inhibition at 1 µM", "setting": "[1]", "result": 50, "unit": "%"},
      {"measurement": "inhibition at 10 µM", "setting": "[1]", "result": 70, "unit": "%"},
      {"measurement": "ki/KI or kobs/[I], α-CT", "setting": "α-CT; ref Pochet et al (2000)", "result": "9400^a M^−1 s^−1"},
      {"measurement": "ki/KI or kobs/[I], HLE", "setting": "HLE; ref Pochet et al (2000)", "result": "1100^a M^−1 s^−1"}
    ]},
    {"smiles": "O=C(Oc1cccc(Cl)c1)c1cc2cc(CCl)ccc2oc1=O", "note": "[compound 3, 3-chlorophenyl 6-chloromethyl-2-oxo-2H-1-benzopyran-3-carboxylate]", "values": [
      {"measurement": "inhibition at 10 µM", "setting": "[1]", "result": 30, "unit": "%"},
      {"measurement": "kinact/KI", "setting": "LMW-uPA; pH 7.5, read-out: ki/KI or kobs/[I], LMW-uPA", "result": 336, "unit": "M⁻¹ s⁻¹"},
      {"measurement": "reactivation of inhibited LMW-uPA", "setting": "LMW-uPA; spontaneously after 18 h incubation or after treatment with NH2OH (pH 7.5, 25°C)", "result": "No reactivation"},
      {"measurement": "kinact/KI", "setting": "Plasmin", "result": 600, "unit": "M⁻¹ s⁻¹"},
      {"measurement": "ki/KI or kobs/[I], α-CT", "setting": "α-CT; ref Pochet et al (1996)", "result": "762700^b M^−1 s^−1"},
      {"measurement": "mode of inhibition of α-CT", "setting": "α-CT; ref Pochet et al, 1996, 2000", "result": "suicide substrate leading to enzyme irreversible inhibition"},
      {"measurement": "ki/KI or kobs/[I], HLE", "setting": "HLE; ref Pochet et al (1996)", "result": "630^b M^−1 s^−1"},
      {"measurement": "mode of inhibition of HLE", "setting": "HLE; ref Pochet et al, 1996, 2000", "result": "transiently inactivated"}
    ]},
    {"smiles": "CC(=O)OCc1ccc2oc(=O)c(C(=O)Oc3ccccc3)cc2c1", "note": "[compound 5]", "values": [
      {"measurement": "inhibition at 1 µM", "setting": "[1]", "result": 30, "unit": "%"},
      {"measurement": "inhibition at 10 µM", "setting": "[1]", "result": "50 to 60", "unit": "%"}
    ]},
    {"smiles": "CC(=O)OCc1ccc2oc(=O)c(C(=O)Oc3cccc(F)c3)cc2c1", "note": "[compound 6]", "values": [
      {"measurement": "inhibition at 1 µM", "setting": "[1]", "result": 80, "unit": "%"},
      {"measurement": "melting point", "result": "170 to 172", "unit": "°C"}
    ]},
    {"smiles": "CC(=O)OCc1ccc2oc(=O)c(C(=O)Oc3cccc(I)c3)cc2c1", "note": "[compound 8]", "values": [
      {"measurement": "inhibition of HT1080 cell invasion (chemoinvasion)", "setting": "[1]", "result": "quite similar to that observed with the reference compound"},
      {"measurement": "melting point", "result": "169 to 170", "unit": "°C"}
    ]}
  ]
}
